{"source": "patent US20230277553A1", "about": "“THERAPEUTIC COMPOSITION OF CURE-PRO COMPOUNDS FOR TARGETED DEGRADATION OF BET DOMAIN PROTEINS, AND METHODS OF MAKING AND USAGE” (CORNELL UNIVERSITY, priority 2020, published 2023)", "key": {"BRD4 [1]": {"biological_target": "T1, BRD4 (Homo sapiens, UniProt O60885)", "experiment": "CURE-PRO-mediated BRD4 degradation with VHL ligands, Western blot, MCF7 cells", "type": "cell-based", "parameters": "endogenous in cells", "conditions": "MCF7, 24 h, 1:1 with 8305, 100 nM-10 μM", "procedure": "(§1) All cell lines were purchased from ATCC or DSMZ and grown at 37° C. with 5% CO2. Human HeLa cells were cultured in complete growth medium (Dulbecco's modified Eagle's medium (DMEM) supplemented with 10% FBS); MCF7 cells were cultured in complete growth medium (Dulbecco's modified Eagle's medium (DMEM) supplemented with 10% FBS and 0.01 mg/ml human recombinant insulin (Sigma Aldrich); Namalwa and MOLM-13 cells were cultured in complete growth medium (RPMI 1640 medium supplemented with 10% FBS); MV-4-11 were cultured in complete growth medium (Iscove's Modified Dulbecco's medium, supplemented with 10% FBS); HCT116 cells were cultured in complete growth medium (McCoy's 5a Medium supplemented with 10% FBS). For cellular degradation of BRD4 studies, cells were seeded in a 12-well plate at 70-80% confluency, allowed to attach overnight, and incubated with the indicated compounds for the indicated time. When indicated, a 15-minute pretreatment with 10 μM pomalidomide, 10 μM VHL298, 10 μM Nutlin3a, 1 μM MG-132 or 1 μM Carfilzomib was performed before the addition of CURE-PROs. For washout studies, after CURE-PRO treatment, media was aspirated and incubated with complete medium for the indicated time before lysis.\nHeLa, MCF7, or HCT116 cells (2.5-3×10^6) were treated for 24 hours with the indicated compounds solubilized in DMSO. The cells were washed in ice-cold PBS and were then lysed in RIPA lysis buffer (150 mM NaCl, 5 mM EDTA, 1% NP-40, 0.5% sodium deoxycholate, 0.1% SDS, 50 mM Tris, pH 8.0.) with Roche protease inhibitor complete cocktail and phosphatase inhibitors (10 mM sodium fluoride, 10 mM sodium pyrophosphate, 1 mM sodium orthovanadate and 20 mM β-glycerophosphate). The total protein concentrations were determined by Bradford Protein Assay and 10-20 μg of protein was loaded onto 4-15% Tris-Glycine gradient gels (Biorad). After standard gel electrophoresis, the separated proteins were transferred to PVDF membrane by wet transfer. The immunoblots were then blocked for 1 hour in 5% skim milk in TBST or 5% BSA in TBST, according to manufacturer's instructions, before an overnight incubation at 4° C. with indicated antibodies and membranes. Membranes were then incubated with the appropriate horseradish peroxidase-conjugated secondary antibodies (1:5,000 dilution) for 1 h at room temperature and the bands were visualized using the Clarity Max Western ECL Substrate (Biorad) and the ChemiDoc Imaging System (Biorad). Signal was detected with ECL Western Blotting Substrate (Pierce) and X-ray film processed with a Konica SRX-101 X-ray film processor or captured by Bio-Rad's Chemidoc Imaging system.\nMCF7 cells (3×10^6) were treated for 24 h with the compounds solubilized in DMSO. Compounds were added at 100 nM-10 μM. […]"}, "BRD4 [2]": {"biological_target": "T1, BRD4", "experiment": "CURE-PRO-mediated BRD4 degradation with VHL ligands, WES (ProteinSimple), MCF7 cells", "type": "cell-based", "parameters": "endogenous in cells", "conditions": "MCF7, 10 μM each", "procedure": "as §1\nWES Simple analysis was performed on WES system (ProteinSimple-Biotechne) according to the manufacturer's instructions. Total protein concentrations of cell lysates were determined by the Pierce BCA kit (Thermo Fisher). 3 μL of 0.3 μg/μL of the protein lysate was loaded onto a 12- to 230-kDa WES assay plate (ProteinSimple) where 300 nL sample was withdrawn through a capillary, subjected to electrophoretic separation of proteins by size, and followed by the simultaneous, HRP-based detection of proteins using the Anti-Rabbit Detection Module (Proteinsimple: #DM-001). The electropherograms were checked then the automatic peak detection was manually corrected if it was required.\nMCF7 cells (3×10^6) were treated for 4-24 hours continually (FIG. 72), or treated for 4h, washed and incubated for a further 4-24 h with the compounds solubilized in DMSO. Compounds were added at 10 μM each. Cells were washed, lysed, and clarified by centrifugation. The total protein concentration was quantified by the BCA method (ThermoFisher Sciences). Standardized protein samples were electrophoresed and imaged as described in the WES Proteinsimple section above. FIG. 69 depicts the CURE-PRO-mediated BRD4 degradation for the BRD-E50 monomer, and VHL ligand, 8305.\nMCF7 cells (3×10^6) were treated for 24 hours with the compounds solubilized in DMSO. CURE-PRO monomers were added at 10 μM each and the proteasomal inhibitors at 1 μM. Standardized protein samples were electrophoresed and imaged as described in the WES Proteinsimple section above. FIGS. 73 and 75 depicts the dependence of the proteasome for CURE-PRO-mediated BRD4 degradation.\nMCF7 cells (3×10^6) were treated for 24 hours with the compounds solubilized in DMSO. CURE-PRO monomers were added at 10 μM. FIG. 74 depicts the CURE-PRO-mediated BRD4 degradation for the BRD-E50 monomer, and VHL ligand, 8305 combined in a 1:1 ratio after 24 h."}}, "note": "Entries after “also recorded” stand apart in the source; their conditions may differ.", "data": [{"smiles": "CCNC(=O)C[C@@H]1N=C(c2ccc(Cl)cc2)c2cc(OCCCCC(=O)Nc3cccc(B(O)O)c3)ccc2-n2c(C)nnc21", "note": "[BRD-E20, (3-(5-(((4S)-6-(4-chlorophenyl)-4-(2-(ethylamino)-2-oxoethyl)-1-methyl-4H-benzo[f][1,2,4]triazolo[4,3-a][1,4]diazepin-8-yl)oxy)pentanamido)phenyl)boronic acid]", "values": [{"measurement": "BRD4 degradation, with VHL ligand 8305 (Western blot)", "setting": "BRD4 [1]", "value": "there is degradation of BRD4"}, {"measurement": "BRD4 degradation, with VHL ligand 8304 (WES)", "setting": "BRD4 [2]", "value": "failed to induce BRD4 degradation"}, {"measurement": "BRD4 degradation, with VHL ligand 8305 (WES)", "setting": "BRD4 [2]; 1:1 with 8305, 4-24 h, with washout where stated", "value": "caused BRD4 degradation; also recorded: marked BRD4 degradation"}]}]}
